Data reported in patent US20250163043A1 (TRANSTHERA SCIENCES (NANJING), INC., priority 2021, published 2025).

Experiments:
CDK9/CycT1 [1] = molecular target: T1, CDK9/CycT1 (Homo sapiens, UniProt P50750); assay: Off-chip mobility shift assay (MSA) on CDK9/CycT1; type: biochemical; parameters: Full-length human CDK9 [1-372(end) amino acids of; host or cells: baculovirus expression system; conditions: 4-point concentration (0.0016, 0.008, 0.04, 0.2 uM), ATP 10 μM, reaction time 5 hours, read-out: CDK9/CycT1/nM (inhibitory activity)
Protocol: Prepare 100× concentrated Test compound stock solutions with DMSO. Then, Dilute the solution 25 times with Assay Buffer (20 mM HEPES, 0.01% Triton X-100, 2 mM DTT, pH7.5) to prepare 4× test compound solutions.
Test compounds were evaluated at 4-point concentration (0.0016, 0.008, 0.04, 0.2 uM). • 1) Mix 5 μL of 4× test compound solution with 5 μL of 4× substrate/ATP/Metal solution and 10 μL of 2× kinase solution in 384-well polypropylene plate. Incubate for 5 hours at room temperature. • 2) Add 70 μL of Termination Buffer (QuickScout Screening Assist MSA; Carna Biosciences) to stop the reaction. • 3) Separate and detect unphosphorylated/phosphorylated substrate peptides in the reactant using LabChip system (Perkin Elmer). • 4) Evaluate kinase reaction from product ratio (P/(P+S)) calculated by peak height of unphosphorylated substrate(S) and peak height of phosphorylated substrate (P).

CDK3/CycE1 = CDK3/CycE1 (Homo sapiens, UniProt Q00526); assay: ADP-Glo kinase assay on CDK enzymatic activity, CDK3/CycE1; type: biochemical; conditions: 10 concentrations from 10 μM, 4-fold, 60 min room temperature
How it was run: (§1)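 Ten-point, 4-fold dilution series from 10 μM final was preincubated 10 min with kinase, then 60 min at room temperature with CDKtide substrate and ATP. ADP-Glo luminescence gave inhibition relative to 1 μM AZD4573 and 0.5% DMSO controls; IC50 from curve fitting.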

CDK9/CycT1 [2] = molecular target: T1, CDK9/CycT1; assay: ADP-Glo kinase assay on CDK enzymatic activity, CDK9/CycT1; type: biochemical; conditions: 10 concentrations from 10 μM, 4-fold, 60 min room temperature
How it was run: as §1

CDK5/p25NCK = CDK5/p25NCK (Homo sapiens, UniProt Q00535); assay: ADP-Glo kinase assay on CDK enzymatic activity, CDK5/p25NCK; type: biochemical; conditions: 10 concentrations from 10 μM, 4-fold, 60 min room temperature
How it was run: as §1

[3] = tested on: MV-4-11 (human myelomonocytic leukemia cells); assay: CCK-8 cell proliferation assay, MV-4-11; type: cell-based; conditions: MV4-11, 24 h incubation, 11 concentrations from 5000 nM, 3-fold, read-out: MV-4-11 cell proliferation IC50 (class)
Protocol: Test samples: the compounds of the present invention, having structures shown above.
MV-4-11 (human myelomonocytic leukemia cells) and NCI-H929 (human myeloma cells).
The compounds were dissolved in DMSO and diluted 3-fold in the 96-well plate to obtain stock solutions with 11 concentration gradients. Each cell was inoculated into a 96-well plate, and the diluted compound stock solution was added to the 96-well plate to obtain a series of 11 concentration gradients of compound solutions with final concentrations of 5000 nM starting and 3-fold gradient decreasing, wherein the final DMSO content was […]. There was a medium containing 1‰ DMSO in the negative control well. The treated cells were incubated at 37° C. with 5% CO2 and 95% humidity, wherein MV-4-11 were incubated for 24 h and NCI-H929 for 72 h. After incubation was completed, each well was added with 10 μL of CCK-8 reagent, incubated for 1-3 h at room temperature and placed in the microplate reader, and the absorbance was read at 450 nm.
The inhibition rate was calculated according to the following formula: […]
ODcmpd: compound absorbance; ODpositive: average value of the absorbance of positive control without compound; ODvehicle: average value of the absorbance of solvent vehicle control.
IC50 values were fitted using GraphPad 7.0 based on inhibition rates of compounds at different concentrations.

CDK2/CycA2 = CDK2/CycA2 (Homo sapiens, UniProt P24941); assay: ADP-Glo kinase assay on CDK enzymatic activity, CDK2/CycA2; type: biochemical; conditions: 10 concentrations from 10 μM, 4-fold, 60 min room temperature
How it was run: as §1

CDK1/CycE1 = CDK1/CycE1 (Homo sapiens, UniProt P06493); assay: ADP-Glo kinase assay on CDK enzymatic activity, CDK1/CycE1; type: biochemical; conditions: ADP-Glo; 10 concentrations from 10 μM, 4-fold; 60 min room temperature; read-out: CDK1/CycE1/nM (IC50)
How it was run: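 Compounds in 10-point 4-fold dilutions from 10 μM final, preincubated 10 min with kinase, then substrate/ATP added; 60 min reaction at room temperature. ADP-Glo luminescence read.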

CDK3/CycE1, sequence (Q00526 whole entry, species assumed): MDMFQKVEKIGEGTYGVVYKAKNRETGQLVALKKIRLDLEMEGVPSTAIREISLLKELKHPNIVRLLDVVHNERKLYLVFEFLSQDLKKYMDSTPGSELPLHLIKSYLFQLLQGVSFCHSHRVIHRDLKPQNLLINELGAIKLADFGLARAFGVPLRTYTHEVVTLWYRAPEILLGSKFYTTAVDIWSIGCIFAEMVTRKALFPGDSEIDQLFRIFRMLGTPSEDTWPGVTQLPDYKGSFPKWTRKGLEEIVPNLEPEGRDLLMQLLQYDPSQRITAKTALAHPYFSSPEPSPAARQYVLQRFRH
CDK3/CycE1, sequence (P24864 whole entry partner, species assumed): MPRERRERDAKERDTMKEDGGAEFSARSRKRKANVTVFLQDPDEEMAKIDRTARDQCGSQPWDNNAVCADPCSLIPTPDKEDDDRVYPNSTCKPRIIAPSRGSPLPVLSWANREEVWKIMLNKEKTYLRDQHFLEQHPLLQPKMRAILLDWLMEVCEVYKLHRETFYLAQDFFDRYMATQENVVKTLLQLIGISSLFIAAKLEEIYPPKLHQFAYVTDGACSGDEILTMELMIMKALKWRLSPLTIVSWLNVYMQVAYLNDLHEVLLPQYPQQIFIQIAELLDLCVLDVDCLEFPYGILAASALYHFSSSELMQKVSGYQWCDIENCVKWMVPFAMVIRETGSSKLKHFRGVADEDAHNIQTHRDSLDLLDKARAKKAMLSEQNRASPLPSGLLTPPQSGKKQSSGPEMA
CDK5/p25NCK, sequence (Q00535 whole entry, species assumed): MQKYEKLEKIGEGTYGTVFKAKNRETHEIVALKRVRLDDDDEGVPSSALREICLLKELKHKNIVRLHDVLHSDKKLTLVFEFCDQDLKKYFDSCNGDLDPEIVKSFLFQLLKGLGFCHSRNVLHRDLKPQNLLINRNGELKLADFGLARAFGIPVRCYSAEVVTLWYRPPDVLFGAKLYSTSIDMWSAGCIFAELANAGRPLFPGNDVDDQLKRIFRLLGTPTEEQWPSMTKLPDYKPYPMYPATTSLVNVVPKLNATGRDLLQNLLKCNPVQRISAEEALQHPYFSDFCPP
CDK5/p25NCK, sequence (Q15078 99-307 partner limits assumed, species assumed): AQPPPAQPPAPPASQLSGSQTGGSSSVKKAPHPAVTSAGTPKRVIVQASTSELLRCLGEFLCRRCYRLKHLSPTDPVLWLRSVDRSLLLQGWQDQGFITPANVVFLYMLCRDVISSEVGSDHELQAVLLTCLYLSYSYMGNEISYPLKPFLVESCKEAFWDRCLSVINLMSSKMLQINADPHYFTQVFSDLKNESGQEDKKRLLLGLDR
CDK1/CycE1, sequence (P06493 whole entry, species assumed): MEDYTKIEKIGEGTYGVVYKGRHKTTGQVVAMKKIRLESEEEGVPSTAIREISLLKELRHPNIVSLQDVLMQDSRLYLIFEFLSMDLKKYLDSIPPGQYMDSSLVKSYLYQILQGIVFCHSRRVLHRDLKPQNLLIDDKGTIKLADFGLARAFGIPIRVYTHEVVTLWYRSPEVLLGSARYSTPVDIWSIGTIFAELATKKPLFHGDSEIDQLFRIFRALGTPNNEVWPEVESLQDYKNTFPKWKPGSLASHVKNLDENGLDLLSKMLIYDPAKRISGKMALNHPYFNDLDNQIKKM
CDK1/CycE1, sequence (P24864 whole entry partner, species assumed): as the sequence (P24864 whole entry partner, species assumed) above
T1 sequence (P50750 whole entry): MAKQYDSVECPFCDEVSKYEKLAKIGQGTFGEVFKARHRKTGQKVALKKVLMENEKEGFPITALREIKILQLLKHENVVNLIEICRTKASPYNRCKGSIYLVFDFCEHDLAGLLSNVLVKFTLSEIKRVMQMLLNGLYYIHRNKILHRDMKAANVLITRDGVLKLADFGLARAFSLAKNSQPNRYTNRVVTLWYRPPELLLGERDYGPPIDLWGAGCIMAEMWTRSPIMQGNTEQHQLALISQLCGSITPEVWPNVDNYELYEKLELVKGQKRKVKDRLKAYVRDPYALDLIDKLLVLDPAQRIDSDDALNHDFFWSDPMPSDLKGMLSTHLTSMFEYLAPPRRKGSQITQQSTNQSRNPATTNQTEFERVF
T1 sequence (O60563 whole entry partner): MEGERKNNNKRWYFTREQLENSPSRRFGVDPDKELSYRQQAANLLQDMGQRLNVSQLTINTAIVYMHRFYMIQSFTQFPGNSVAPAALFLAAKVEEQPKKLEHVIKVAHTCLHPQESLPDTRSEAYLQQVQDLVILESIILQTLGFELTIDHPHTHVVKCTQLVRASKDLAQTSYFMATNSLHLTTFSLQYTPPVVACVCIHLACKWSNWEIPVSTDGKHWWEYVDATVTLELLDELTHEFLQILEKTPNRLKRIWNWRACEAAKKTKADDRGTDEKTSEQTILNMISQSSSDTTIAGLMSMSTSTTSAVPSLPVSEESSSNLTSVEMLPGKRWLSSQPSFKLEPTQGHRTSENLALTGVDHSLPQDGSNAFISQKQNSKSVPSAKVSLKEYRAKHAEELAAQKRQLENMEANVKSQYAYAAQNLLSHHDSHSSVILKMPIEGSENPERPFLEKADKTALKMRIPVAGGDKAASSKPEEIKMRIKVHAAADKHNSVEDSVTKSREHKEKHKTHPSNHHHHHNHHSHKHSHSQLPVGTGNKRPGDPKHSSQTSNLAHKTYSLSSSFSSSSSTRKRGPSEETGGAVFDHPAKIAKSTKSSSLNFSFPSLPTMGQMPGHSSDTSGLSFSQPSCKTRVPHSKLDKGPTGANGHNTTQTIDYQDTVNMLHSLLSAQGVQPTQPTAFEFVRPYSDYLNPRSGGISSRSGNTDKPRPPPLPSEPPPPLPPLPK

Row | SMILES | IC50 (CDK9/CycT1 [1]) | IC50 (CDK3/CycE1) | IC50 (CDK9/CycT1 [2]) | IC50 (CDK5/p25NCK) | IC50 [3] | IC50 (CDK2/CycA2) | IC50 (CDK1/CycE1)
1 | CC(C)Nc1nc([C@@H](C)O)cc2cnc(N[C@H]3CC[C@H](NC4CCOCC4)CC3)nc12 [Compound 74, (R)-1-(8-(isopropylamino)-2-(((1r,4R)-4-((tetrahydro-2H-pyran-4-yl)amino)cyclohexyl)amino)pyrido[3,4-d]pyrimidin-6-yl)ethan-1-ol] | 19 nM | – | – | – | – | – | –
2 | CC(C)Nc1nc([C@@H](C)O)cc2cnc(N[C@H]3CC[C@H](NC4COC4)CC3)cc12 [Compound 101, (R)-1-(1-(isopropylamino)-7-(((1r,4R)-4-(oxetan-3-ylamino)cyclohexyl)amino)-2,6-naphthyridin-3-yl)ethan-1-ol] | 15 nM | – | – | – | – | – | –
3 | CC(C)Nc1nc(C(F)F)cc2cnc(N[C@H]3CC[C@@H](N)C3)cc12 [Compound 53, N7-((1S,3R)-3-aminocyclopentyl)-3-(difluoromethyl)-N^1-isopropyl-2,6-naphthyridine-1,7-diamine] | – | 315 nM | 2 nM | 549 nM | 0.4 to 1 µM | 161 nM | 709 nM
4 | CC(=O)N[C@@H]1CCC[C@H](C(=O)Nc2cc3c(N4CC[C@@](C)(O)C4)nc(C#N)cc3cn2)C1 [Compound 22, (1S,3R)-3-acetamido-N-(7-cyano-5-((R)-3-hydroxy-3-methylpyrrolidin-1-yl)-2,6-naphthyridin-3-yl)cyclohexane-1-carboxamide] | – | 1910 nM | 17 nM | > 10000 nM | 0.4 to 1 µM | 4510 nM | –
5 | CC(=O)N[C@@H]1CCC[C@H](C(=O)Nc2cc3c(N4CC[C@@H](O)C4)nc(C#N)cc3cn2)C1 [Compound 19, (1S,3R)-3-acetamido-N-(7-cyano-5-((R)-3-hydroxypyrrolidin-1-yl)-2,6-naphthyridin-3-yl)cyclohexane-1-carboxamide] | – | 1470 nM | 26 nM | 6080 nM | > 1 µM | 2370 nM | –
6 | CC(=O)N[C@H]1CCC[C@H](C(=O)Nc2cc3c(NC(C)C)nc(C#N)cc3cn2)C1 [Compound 25, (1S,3S)-3-acetamido-N-(7-cyano-5-(isopropylamino)-2,6-naphthyridin-3-yl)cyclohexane-1-carboxamide] | – | 602 nM | 12 nM | 1210 nM | 0.4 to 1 µM | 521 nM | –
7 | CC(=O)N[C@@H]1CCC[C@H](C(=O)Nc2cc3c(N4CC[C@@H](N)C4)nc(C#N)cc3cn2)C1 [Compound 20, (1S,3R)-3-acetamido-N-(5-((R)-3-aminopyrrolidin-1-yl)-7-cyano-2,6-naphthyridin-3-yl)cyclohexane-1-carboxamide] | – | 1750 nM | 11 nM | 4320 nM | > 1 µM | 2150 nM | –
8 | CC(C)Nc1nc(C#N)cc2cnc(N[C@H]3CCCN(C)C3)cc12 [Compound 57, (S)-1-(isopropylamino)-7-((1-methylpiperidin-3-yl)amino)-2,6-naphthyridine-3-carbonitrile] | – | 2520 nM | 30 nM | 1760 nM | > 1 µM | 427 nM | –
9 | CC(=O)N[C@@H]1CCC[C@H](C(=O)Nc2cc3c(NC4(C)CC4)nc(C#N)cc3cn2)C1 [Compound 17, (1S,3R)-3-acetamido-N-(7-cyano-5-((1-methylcyclopropyl)amino)-2,6-naphthyridin-3-yl)cyclohexane-1-carboxamide] | – | 750 nM | 4 nM | 664 nM | 0.4 to 1 µM | 279 nM | –
10 | C[C@@H](Nc1nc(C#N)cc2cnc(N[C@H]3CCCNC3)cc12)c1ccccc1 [Compound 147, 1-(((R)-1-phenylethyl)amino)-7-(((S)-piperidin-3-yl)amino)-2,6-naphthyridine-3-carbonitrile] | – | 215 nM | 3 nM | 2230 nM | 0.4 to 1 µM | 531 nM | 158 nM

More lines, now with the values ahead:

Row | IC50 (CDK9/CycT1 [1]) | IC50 (CDK3/CycE1) | IC50 (CDK9/CycT1 [2]) | IC50 (CDK5/p25NCK) | IC50 [3] | IC50 (CDK2/CycA2) | IC50 (CDK1/CycE1) | SMILES
11 | 5 nM | – | – | – | – | – | – | CC(C)Nc1nc(C#N)cc2cnc(N[C@H]3CC[C@H](NC(=O)CN(C)C)CC3)nc12 [Compound 66, N-((1r,4r)-4-((6-cyano-8-(isopropylamino)pyrido[3,4-d]pyrimidin-2-yl)amino)cyclohexyl)-2-(dimethylamino)acetamide]
12 | 12 nM | – | – | – | – | – | – | CC(C)Nc1nc([C@@H](C)O)cc2cnc(N[C@H]3CC[C@H](NC4COC4)CC3)nc12 [Compound 80, (R)-1-(8-(isopropylamino)-2-(((1r,4R)-4-(oxetan-3-ylamino)cyclohexyl)amino)pyrido[3,4-d]pyrimidin-6-yl)ethan-1-ol]
13 | 24 nM | – | – | – | – | – | – | CC(C)Nc1nccc2cnc(N[C@H]3CC[C@H](O)CC3)nc12 [Compound 89, (1r,4r)-4-((8-(isopropylamino)pyrido[3,4-d]pyrimidin-2-yl)amino)cyclohexan-1-ol]
14 | 34 nM | – | – | – | – | – | – | CC(C)Nc1nc(C2COC2)cc2cnc(N[C@H]3CC[C@H](O)CC3)nc12 [Compound 95, (1r,4r)-4-((8-(isopropylamino)-6-(oxetan-3-yl)pyrido[3,4-d]pyrimidin-2-yl)amino)cyclohexan-1-ol]
15 | 7 nM | – | – | – | – | – | – | C#Cc1cc2cnc(N[C@H]3CC[C@H](O)CC3)nc2c(NC(C)C)n1 [Compound 93, (1r,4r)-4-((6-ethynyl-8-(isopropylamino)pyrido[3,4-d]pyrimidin-2-yl)amino)cyclohexan-1-ol]
16 | – | 1300 nM | 18 nM | 3040 nM | > 1 µM | 2020 nM | – | CC(C)Nc1nc(C#N)cc2cnc(N[C@@H]3CNCC[C@@H]3F)cc12 [Compound 42, 7-(((3R,4S)-4-fluoropiperidin-3-yl)amino)-1-(isopropylamino)-2,6-naphthyridine-3-carbonitrile]
17 | – | 271 nM | 3 nM | 72 nM | 0.4 to 1 µM | 33 nM | – | CC(=O)N[C@H]1CC[C@H](Nc2ncc3cc(C#N)nc(NC(C)C)c3n2)C1 [Compound 46, N-((1S,3S)-3-((6-cyano-8-(isopropylamino)pyrido[3,4-d]pyrimidin-2-yl)amino)cyclopentyl)acetamide]
18 | – | 23 nM | 1 nM | 7 nM | 0.4 to 1 µM | 4 nM | – | CC(C)Nc1nc(C#N)cc2cnc(N[C@H]3CC[C@@H](O)C3)cc12 [Compound 36, 7-(((1S,3R)-3-hydroxycyclopentyl)amino)-1-(isopropylamino)-2,6-naphthyridine-3-carbonitrile]
19 | – | 1110 nM | 3 nM | 927 nM | 0.4 to 1 µM | 656 nM | – | COCCN[C@H]1CC[C@H](Nc2cc3c(NC(C)C)nc(C#N)cc3cn2)C1 [Compound 56, 1-(isopropylamino)-7-(((1S,3S)-3-((2-methoxyethyl)amino)cyclopentyl)amino)-2,6-naphthyridine-3-carbonitrile]
20 | – | 831 nM | 18 nM | 435 nM | 0.4 to 1 µM | 443 nM | 947 nM | CC(C)Nc1nc(C#N)cc2cnc(N[C@H]3CC[C@H](C)NC3)nc12 [Compound 107, 8-(isopropylamino)-2-(((3S,6S)-6-methylpiperidin-3-yl)amino)pyrido[3,4-d]pyrimidine-6-carbonitrile]
21 | – | 413 nM | 9 nM | 1170 nM | 0.4 to 1 µM | 504 nM | 216 nM | CC(C)Nc1nc(C#N)cc2cnc(NC3CCNCC3)nc12 [Compound 114, 8-(isopropylamino)-2-(piperidin-4-ylamino)pyrido[3,4-d]pyrimidine-6-carbonitrile]
